This is an account of results in patent EP2014287A1, “Use of cinnamic acid derivatives as modulators of an EP2 receptor” (Bayer Schering Pharma Aktiengesellschaft, priority 2007, dated 2009).

For one assay, the system named is Kumulus-Eizell Komplexe. Description: cumulus expansion test in vitro. Type of assay: cell-based, Mäusen. The note with it: in competition with PGE2. From the text: In immaturen weiblichen Mäusen (Stamm : CD1 (ICR) von Charles River) wird in einem Alter von 14-18 Tagen die Follikulogenese durch eine einmalige Gabe (intraperitoneal) von 10 I.E. PMSG (Pregnant Mare Serum Gonadotropine; Sigma G-4877, Lot 68H0909) induziert. 47 - 50 Stunden nach der Injektion werden die Ovarien entnommen und die Kumulus-Eizell Komplexe entnommen. Der Kumulus Komplex ist in diesem Stadium noch nicht expandiert. Die Kumulus-Eizell Komplexe werden nun für 20 - 24 Stunden mit Prostaglandin E2 (PGE2) (0,3 µM), Vehikel Kontrolle (Ethanol) oder Testsubstanzen inkubiert. Medium: alpha- MEM Medium mit 0,1 mM IBMX, Pyruvate (0,23 mM) Glutamine (2 mM), Pen/Strep 100 IU/ml Pen. und 100 µg/ml Strep.) und HSA (8 mg/ml)). Danach wird die Kumulus Expansion durch die Einteilung in vier Stadien (nach Vanderhyden et al. Dev Biol. 1990 Aug;140(2):307-317) festgestellt. Tabelle 1: Beispiel für die biologische Wirksamkeit der erfindungsgemäßen Verbindungen (gemessen mittels cAMP Antagonismustest): […]

In assay [1] the target is T1, humanen Prostaglandin E2 (Subtyp EP2) Rezeptor (Homo sapiens, UniProt P43116).
T1 construct: host or cells: cells in a culture plate
Description: cAMP antagonism test (HTRF cAMP detection, in presence of PGE2). Type of assay: cell-based. The note with it: cAMP Antagonismustest, read-out: Antagonismus [IC50. From the text:
Die Bindung von PGE2 an den EP2-Subtyp des humanen PGE2-Rezeptors induziert die Aktivierung membranständiger Adenylatzyklasen und führt zur Bildung von cAMP. In Gegenwart des Phosphodiesteraseinhibitors IBMX wird das durch diese Stimulation akkumulierte und mittels Zell-Lyse freigesetzte cAMP in einem kompetitiven Nachweisverfahren eingesetzt. In diesem Test konkurriert das cAMP im Lysat mit cAMP-XL665 um die Bindung eines Eu-Kryptat markierten Anti-cAMP Antikörpers. Dabei entsteht in Abwesenheit von zellulärem cAMP ein maximales Signal, welches auf der Kopplung dieses Antikörpers an das cAMP-XL665 Molekül beruht. Dadurch entsteht nach Anregung bei 337 nm ein auf FRET (fluorescence resonance energy transfer) basierendes, lang anhaltendes Emissionssignal bei 665 nm (und bei […]). Beide Signale werden in einem geeigneten Messgerät zeitlich versetzt, d.h. nach Abklingen der Hintergrundsfluoreszenz gemessen. Jegliche Erhöhung des durch Prostglandin-E2-Gabe bedingten niedrigen FRET-Signals (gemessen als Well-Ratio-Veränderung = Emission665nm/Emission620nm * 10000) zeigt die Wirkung von Antagonisten.
Die in einer Testplatte und 30 % DMSO vorgelegten Substanzlösungen (0.75 µl) werden in 16 µl einer KRSB+IBMX-Stimulationslösung gelöst (1 X Krebs-Ringer Bicarbonate Buffer; Sigma-Aldrich # K-4002; inklusive 750 µM 3-Isobutyl-1-methylxanthine Sigma-Aldrich # I-7018), anschließend werden 15 µl davon in eine medienfreie Zellkulturplatte überführt, die kurz zuvor mit KRSB gewaschen worden war. Nach einer 30-minütigen Vorinkubation bei Raumtemperatur (RT) werden 5 µl einer 4xPGE2 Lösung (11 nM) zugegeben und in Gegenwart des Agonisten für weitere 60 min bei RT inkubiert (Volumen: - 20 µl), bevor die Reaktion anschließend durch Zugabe von 5 µl Lysispuffer gestoppt und für weitere 20 min bei RT inkubiert wird (Volumen: - 25 µl). Das Zell-Lysat wird anschließend in eine Messplatte überführt und entsprechend den Herstellerangaben (cyclic AMP kit Cisbio International # 62AMPPEC) gemessen.

Assay [2] has as its target T1, humanen Prostaglandin E2 (Subtyp EP2) Rezeptor. The experiment in a line: cellular agonism test (HTRF cAMP detection, without PGE2). Type of assay: cell-based. (In general: Time-resolved FRET reads energy transfer from a long-lived donor to a nearby acceptor.)

pIC50: −log10 of the molar value.

T1 sequence (P43116 whole entry): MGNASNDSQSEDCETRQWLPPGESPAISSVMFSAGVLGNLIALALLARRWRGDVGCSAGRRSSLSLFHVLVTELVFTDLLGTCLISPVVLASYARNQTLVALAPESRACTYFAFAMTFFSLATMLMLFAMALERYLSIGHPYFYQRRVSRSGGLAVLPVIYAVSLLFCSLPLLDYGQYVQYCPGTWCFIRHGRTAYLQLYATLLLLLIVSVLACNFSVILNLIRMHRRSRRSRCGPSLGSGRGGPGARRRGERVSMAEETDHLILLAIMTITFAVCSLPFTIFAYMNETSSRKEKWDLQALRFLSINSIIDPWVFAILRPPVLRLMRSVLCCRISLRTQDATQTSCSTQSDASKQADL

As to `CC(C)Oc1ccc2c(=O)c3cc(C(=O)O)ccc3oc2c1` [AH 6809, reference compound], in the assay on Kumulus-Eizell Komplexe (100 - 200 µM), the “Unterdrückung der Kumulus Expansion” value was “ca. 30%”.
One may read the pIC50 as the negative decadic logarithm of the IC50, by convention in mol/L. With `CCOc1cccc(CCC(=O)NCCc2c(C)[nH]c3c(F)ccc(C)c23)c1` [Beispiel 7, 3-(3-Ethoxyphenyl)-N-[2-(7-fluoro-2,4-dimethyl-1 H-indol-3-yl)-ethyl]-propionamid], in assay [1], the negative-log IC50 (pIC50) was 5.92.
`Cc1[nH]c2c(F)ccc(C)c2c1CCNC(=O)CCc1ccc(F)cc1` [Beispiel 9, N-[2-(7-Fluoro-2,4-dimethyl-1 H-indol-3-yl)-ethyl]-3-(4-fluorophenyl)-propionamid]: in assay [2], the “Wirkung im zellulären Agonismustest” value was “keine Inhibition”. In addition, the pIC50 in assay [1] is 5.82. For the same compound, the “Unterdrückung der Kumulus Expansion” value in the assay on Kumulus-Eizell Komplexe (10 µM) stood at 20%.
For the compound `Cc1[nH]c2c(F)ccc(C)c2c1CCNC(=O)/C=C/c1cc(F)cc(F)c1` [Beispiel 20, (E)-3-(3,5-Difluorphenyl)-N-[2-(7-fluor-2,4-dimethyl-1 H-indol-3-yl)-ethyl]-acrylamid], the pIC50 in assay [1] was 6.08.
